In US20250084039A1, “4-SUBSTITUTED AMINOISOQUINOLINE DERIVATIVES” (Purdue Research Foundation, priority 2016, published 2025):
Like-named read-outs stand apart in the source and are kept apart here.

What was measured:
MV4-11 [1] = assay: Proliferation inhibition screen at 100 nM; assay type: cell-based; details: 100 nM compound, FIG. 10
Method: (§1) To determine inhibition at 100 nM or 1 mM, 96-well plates were seeded the afternoon before treatment. Plates were then treated with compound diluted in dimethyl sulfoxide (DMSO) as well as a DMSO control the following day for 72 hours. After this time the plates were then treated with 10 μL of CellTiter-Blue Cell Viability Assay (Promega, Madison, WI) for 4 hours. Then the plates were read on a plate reader (Bio-Tek, Winooski, VT). Data was analyzed on Excel as a percent of the DMSO vehicle.
From these cell proliferation studies, MV4-11 appeared to be more sensitive to the compounds than the other cell lines (Table 6A). […] To identify group of compounds potently inhibiting cancer cell proliferation, a lower concentration of compounds (100 nM) were used to screen against MV4-11 (FIG. 10). From these experiments, potent amide compounds A7, A10, A15, A16, A18, A20, B15 and D30 (as indicated by ***, FIG. 10) were selected. […] Typically amides that contain basic amines are included in compound libraries to improve aqueous solubility but it appears that the presence of a basic amine in the side chain of the compounds also facilitated the actual inhibition of MV4-11 proliferation.

FLT3 = FLT3 (Homo sapiens (Human), UniProt P36888); assay: Reaction Biology HotSpot kinase assay; assay type: biochemical; details: 500 nM compound; for inhibition at 0.5 µM: read-out: % inhibition of FLT3 activity
FLT3, sequence (P36888 27-993): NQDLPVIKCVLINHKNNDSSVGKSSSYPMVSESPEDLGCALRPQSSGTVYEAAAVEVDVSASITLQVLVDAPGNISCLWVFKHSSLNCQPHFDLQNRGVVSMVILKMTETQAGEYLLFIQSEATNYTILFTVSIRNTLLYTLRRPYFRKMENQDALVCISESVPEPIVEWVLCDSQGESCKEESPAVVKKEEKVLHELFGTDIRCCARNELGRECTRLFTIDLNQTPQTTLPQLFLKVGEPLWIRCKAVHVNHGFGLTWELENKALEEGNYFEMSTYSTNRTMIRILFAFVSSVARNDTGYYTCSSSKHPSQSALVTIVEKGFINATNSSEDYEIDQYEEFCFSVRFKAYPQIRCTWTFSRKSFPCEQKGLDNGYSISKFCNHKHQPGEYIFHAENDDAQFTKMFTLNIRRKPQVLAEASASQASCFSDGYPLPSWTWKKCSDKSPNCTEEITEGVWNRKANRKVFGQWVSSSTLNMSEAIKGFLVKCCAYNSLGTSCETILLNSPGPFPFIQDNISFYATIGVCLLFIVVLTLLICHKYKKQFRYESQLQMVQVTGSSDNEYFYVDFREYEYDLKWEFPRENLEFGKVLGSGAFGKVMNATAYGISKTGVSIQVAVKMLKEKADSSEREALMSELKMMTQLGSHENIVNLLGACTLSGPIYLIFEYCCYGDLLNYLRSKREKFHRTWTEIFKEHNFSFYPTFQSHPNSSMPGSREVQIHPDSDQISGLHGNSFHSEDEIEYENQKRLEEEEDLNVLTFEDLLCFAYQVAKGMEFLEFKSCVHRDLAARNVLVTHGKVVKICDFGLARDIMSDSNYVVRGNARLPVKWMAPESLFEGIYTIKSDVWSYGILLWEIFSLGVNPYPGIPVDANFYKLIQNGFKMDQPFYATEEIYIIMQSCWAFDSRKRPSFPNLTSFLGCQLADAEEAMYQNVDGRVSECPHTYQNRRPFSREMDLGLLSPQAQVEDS
Method: (§2) The Reaction Biology Corporation (www.reactionbiology.com, Malvern, PA) HotSpot assay platform was used to measure kinase/inhibitor interactions exactly as previously described. Kinase and substrate were mixed in a buffer containing 20 mM HEPES pH 7.5, 10 mM MgCl2, 1 mM EGTA, 0.02% Brij35, 0.02 mg/mL BSA, 0.1 mM Na3VO4, 2 mM DTT and 1% DMSO. Single-dose of compounds (500 nM) were then added to each reaction mixture. After 20-minute incubation. ATP (Sigma) and [γ-^33P] ATP (Perkin Elmer) were added at a final total concentration of 100 μM for addition 2 hours at room temperature, followed by spotting onto P81 ion exchange cellulose chromatography paper (Whatman, Inc.). […] Percent remaining kinase activity of a vehicle (DMSO) containing kinase reaction was calculated for each kinase/inhibitor pair using Prism 5 (GraphPad).
as §2, with “1” for “DTT”, “incubation,” for “incubation.”

K562 = assay: IC50 proliferation assay (Alamar Blue, 72 h); assay type: cell-based
Method: (§3) IC50 proliferation assay—Cell lines and primary cells were seeded into 96-well plates the afternoon prior to treatment. Approximately 18 hours later, compounds were semi-serially diluted in dimethyl sulfoxide (DMSO) and then growth medium, and added to cells. Plates were incubated for 72 hours prior to addition of Alamar Blue (Life Technologies, Carlsbad, CA). Plates were read after 4 additional hours of incubation at 37° C. using a Bio-Tek Synergy HT plate reader (Bio-Tek, Winooski, VT). Data was analyzed and graphed using GraphPad Prism Software (Graphpad, La Jolla. CA).
(§4) IC50 (proliferation inhibition) against leukemia cell lines MV4-11 and K562. […] MiaPaca-2 (Pancreatic cell line), HLY-1 (Lymphoma cell line), MV4-11 (AML, cell line) and K562 (CML cell line).

MV4-11 [2] = assay: IC50 proliferation assay (Alamar Blue, 72 h); assay type: cell-based; details: read-out: IC50 (proliferation inhibition) Cell line - MV4-11
Method: as §3, §4

MV-4-11 = assay: Proliferation inhibition at single concentration (CellTiter-Blue); assay type: cell-based; details: 1 μM compound; for inhibition at 1 µM: Homo sapiens, MV4-11, read-out: Percent inhibition of proliferation MV-4-11
HCT116 = assay: as above; assay type: cell-based; details: 1 μM compound; for inhibition at 1 µM: Homo sapiens, HCT-116, read-out: Percent inhibition of proliferation HCT116
HeLa = assay: as above; assay type: cell-based; details: 1 μM compound; for inhibition at 1 µM: Homo sapiens, HeLa, read-out: Percent inhibition of proliferation HeLa
Method: as §1, with “Plates” for “To determine inhibition at 100 nM or 1 mM, 96-well plates were seeded the afternoon before treatment. Plates”
(§5) Antiproliferative activities against AML cell line, MV4-11 (a FLT3-driven cell line) and three other solid tumors (MCF7, breast, HCT116, colon and HeLa) have been investigated (Tables 6A and 6B and FIG. 10).

MCF-7 = assay: as above; assay type: cell-based; details: 1 μM compound; for inhibition at 1 µM: Homo sapiens, MCF7, read-out: Percent inhibition of proliferation MCF-7
Method: as §1, with “Plates” for “To determine inhibition at 100 nM or 1 mM, 96-well plates were seeded the afternoon before treatment. Plates”
as §5

MOLM14 = assay: IC50 determination (proliferation assay, CellTiter-Blue); assay type: cell-based
Method: (§6) Cell lines were seeded into 96-well plates the afternoon prior to treatment. Approximately 18 hours later, compounds were diluted in dimethyl sulfoxide (DMSO) and added to cells. Plates were incubated for 72 hours and cells viability determined with CellTiter-Blue Cell Viability Assay (Promega, Madison, WI). Plates were read after 4 additional hours of incubation at 37° C. using plate reader (Bio-Tek, Winooski. VT). Data was analyzed and graphed using GraphPad Prism Software (Graphpad. La Jolla, CA). […]

MV4-11 [3] = assay: as above; assay type: cell-based
Method: as §6

FGFR1 = FGFR1 (Homo sapiens (Human), UniProt P11362); assay: Reaction Biology HotSpot kinase assay; assay type: biochemical; details: 500 nM compound; read-out: Percentage kinase inhibition FGFR1
FGFR1, sequence (P11362 22-822): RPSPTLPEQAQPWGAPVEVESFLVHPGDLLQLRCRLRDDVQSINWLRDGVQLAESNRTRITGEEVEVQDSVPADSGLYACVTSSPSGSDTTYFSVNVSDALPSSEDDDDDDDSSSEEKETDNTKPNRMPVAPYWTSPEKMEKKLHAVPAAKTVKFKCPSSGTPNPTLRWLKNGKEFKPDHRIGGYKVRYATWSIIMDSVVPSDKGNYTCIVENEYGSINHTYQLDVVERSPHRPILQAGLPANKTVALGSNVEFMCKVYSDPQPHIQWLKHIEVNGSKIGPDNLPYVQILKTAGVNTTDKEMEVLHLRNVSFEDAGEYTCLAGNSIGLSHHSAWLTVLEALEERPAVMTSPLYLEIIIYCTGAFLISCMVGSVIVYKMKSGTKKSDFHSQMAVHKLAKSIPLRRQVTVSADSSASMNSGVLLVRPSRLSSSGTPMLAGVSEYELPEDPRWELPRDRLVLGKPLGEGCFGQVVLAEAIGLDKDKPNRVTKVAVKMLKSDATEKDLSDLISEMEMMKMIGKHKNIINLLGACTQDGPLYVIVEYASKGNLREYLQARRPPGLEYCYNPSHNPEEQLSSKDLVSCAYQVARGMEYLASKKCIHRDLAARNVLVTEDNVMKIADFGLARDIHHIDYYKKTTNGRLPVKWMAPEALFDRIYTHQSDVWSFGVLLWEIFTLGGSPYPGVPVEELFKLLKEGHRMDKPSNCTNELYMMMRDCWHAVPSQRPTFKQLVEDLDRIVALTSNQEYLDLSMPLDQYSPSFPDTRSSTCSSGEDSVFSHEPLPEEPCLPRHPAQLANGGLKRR
Method: as §2
as §2, with “1” for “DTT”, “incubation,” for “incubation.”

RET = RET (Homo sapiens (Human), UniProt P07949); assay: Reaction Biology HotSpot kinase assay; assay type: biochemical; details: 500 nM compound; read-out: Percentage kinase inhibition RET
RET, sequence (P07949 29-1114): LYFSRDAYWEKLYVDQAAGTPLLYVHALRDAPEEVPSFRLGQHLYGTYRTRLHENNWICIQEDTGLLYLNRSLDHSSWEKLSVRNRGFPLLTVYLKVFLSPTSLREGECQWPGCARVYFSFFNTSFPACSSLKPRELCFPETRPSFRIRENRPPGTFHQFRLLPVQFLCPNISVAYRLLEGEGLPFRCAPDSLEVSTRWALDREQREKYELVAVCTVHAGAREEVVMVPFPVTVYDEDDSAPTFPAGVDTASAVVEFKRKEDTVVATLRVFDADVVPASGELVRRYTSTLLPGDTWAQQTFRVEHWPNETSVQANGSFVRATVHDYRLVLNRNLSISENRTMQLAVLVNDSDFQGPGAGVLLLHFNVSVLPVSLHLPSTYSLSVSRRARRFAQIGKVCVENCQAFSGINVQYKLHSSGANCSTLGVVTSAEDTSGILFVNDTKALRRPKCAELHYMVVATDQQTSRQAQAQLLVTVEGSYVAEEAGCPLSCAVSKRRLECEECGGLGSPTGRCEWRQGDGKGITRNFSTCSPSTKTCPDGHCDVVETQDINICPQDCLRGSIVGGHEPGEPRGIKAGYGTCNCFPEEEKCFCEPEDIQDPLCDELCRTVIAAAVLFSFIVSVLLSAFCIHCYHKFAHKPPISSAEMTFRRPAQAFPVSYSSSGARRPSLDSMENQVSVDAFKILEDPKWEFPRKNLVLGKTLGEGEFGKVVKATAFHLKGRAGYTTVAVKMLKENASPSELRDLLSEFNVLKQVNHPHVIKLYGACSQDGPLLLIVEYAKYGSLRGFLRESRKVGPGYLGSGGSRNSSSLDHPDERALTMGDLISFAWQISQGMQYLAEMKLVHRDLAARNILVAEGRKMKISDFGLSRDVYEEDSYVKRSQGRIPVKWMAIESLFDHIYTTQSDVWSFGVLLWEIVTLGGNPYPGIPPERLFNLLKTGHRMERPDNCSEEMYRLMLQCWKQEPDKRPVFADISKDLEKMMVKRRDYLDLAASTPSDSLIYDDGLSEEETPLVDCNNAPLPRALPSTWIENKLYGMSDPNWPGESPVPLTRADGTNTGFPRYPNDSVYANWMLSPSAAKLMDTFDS
Method: as §2
as §2, with “1” for “DTT”, “incubation,” for “incubation.”

TRKC = TRKC (Homo sapiens (Human), UniProt Q16288); assay: Reaction Biology HotSpot kinase assay; assay type: biochemical; details: 500 nM compound, 100 μM radiolabeled ATP
Method: as §2
as §2, with “1” for “DTT”, “incubation,” for “incubation.”

c-Src = c-Src (Homo sapiens (Human), UniProt P12931); assay: Reaction Biology HotSpot kinase assay; assay type: biochemical; details: 500 nM compound; read-out: Percentage kinase inhibition c-Src
c-Src, sequence (P12931 whole entry, looked up): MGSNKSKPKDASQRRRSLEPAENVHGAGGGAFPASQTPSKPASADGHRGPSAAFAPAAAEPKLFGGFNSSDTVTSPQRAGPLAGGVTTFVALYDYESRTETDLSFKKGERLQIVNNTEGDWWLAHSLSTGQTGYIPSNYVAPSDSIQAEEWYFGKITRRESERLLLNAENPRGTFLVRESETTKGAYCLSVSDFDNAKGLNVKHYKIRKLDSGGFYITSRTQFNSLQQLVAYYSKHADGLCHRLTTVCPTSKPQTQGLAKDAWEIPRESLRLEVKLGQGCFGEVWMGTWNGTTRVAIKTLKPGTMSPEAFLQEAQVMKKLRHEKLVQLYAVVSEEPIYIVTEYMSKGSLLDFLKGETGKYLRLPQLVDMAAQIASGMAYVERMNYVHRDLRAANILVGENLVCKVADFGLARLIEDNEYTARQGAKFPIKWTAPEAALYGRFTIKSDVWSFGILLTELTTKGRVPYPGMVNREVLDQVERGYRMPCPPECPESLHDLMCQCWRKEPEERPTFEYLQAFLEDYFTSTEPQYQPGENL
Method: as §2
as §2, with “1” for “DTT”, “incubation,” for “incubation.”

c-kit = c-kit (Homo sapiens (Human), UniProt P10721); assay: Reaction Biology HotSpot kinase assay; assay type: biochemical; details: 500 nM compound, 100 μM radiolabeled ATP
c-kit, sequence (P10721 26-976): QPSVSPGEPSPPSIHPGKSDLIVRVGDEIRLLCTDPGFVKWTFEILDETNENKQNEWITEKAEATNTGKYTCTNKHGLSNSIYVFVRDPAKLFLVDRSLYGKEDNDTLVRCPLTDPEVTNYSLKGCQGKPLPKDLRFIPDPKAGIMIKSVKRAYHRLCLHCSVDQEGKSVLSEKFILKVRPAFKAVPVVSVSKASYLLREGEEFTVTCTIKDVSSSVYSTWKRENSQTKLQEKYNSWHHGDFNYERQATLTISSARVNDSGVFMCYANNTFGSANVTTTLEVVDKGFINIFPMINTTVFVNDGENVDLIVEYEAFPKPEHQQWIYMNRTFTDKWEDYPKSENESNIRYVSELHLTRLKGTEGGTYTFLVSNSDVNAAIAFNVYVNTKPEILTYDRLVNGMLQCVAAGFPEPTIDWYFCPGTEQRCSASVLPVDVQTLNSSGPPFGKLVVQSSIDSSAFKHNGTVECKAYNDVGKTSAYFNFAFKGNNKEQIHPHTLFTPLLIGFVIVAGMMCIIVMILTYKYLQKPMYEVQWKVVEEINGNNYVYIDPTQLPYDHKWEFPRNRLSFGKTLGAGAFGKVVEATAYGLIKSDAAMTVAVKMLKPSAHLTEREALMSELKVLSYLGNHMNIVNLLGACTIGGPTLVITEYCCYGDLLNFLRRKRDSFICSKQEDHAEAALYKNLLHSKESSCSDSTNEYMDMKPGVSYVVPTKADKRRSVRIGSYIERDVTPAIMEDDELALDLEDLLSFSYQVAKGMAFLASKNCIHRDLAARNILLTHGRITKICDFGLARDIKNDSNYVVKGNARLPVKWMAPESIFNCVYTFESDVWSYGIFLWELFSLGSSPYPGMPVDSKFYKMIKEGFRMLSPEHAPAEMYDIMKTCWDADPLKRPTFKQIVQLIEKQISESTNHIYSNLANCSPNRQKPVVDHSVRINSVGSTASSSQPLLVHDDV
Method: as §2
as §2, with “1” for “DTT”, “incubation,” for “incubation.”

FLT3 (ITD) = FLT3 (ITD) (Homo sapiens, UniProt P36888, ITD); assay: DiscoverX Kd Elect binding; details: read-out: Kd FLT3 (ITD)
Excerpt: Although the current drugs on the market or in clinical trials are relatively successful in killing the AML leukemia cells, they currently are unable to deal with secondary mutations that occur after TKI treatment, such as FLT3 ([…]).

FLT3 (ITD, F691L) = FLT3 (ITD, F691L) (Homo sapiens, UniProt P36888, F691L/ITD); assay: DiscoverX Kd Elect binding; details: read-out: Kd FLT3 (ITD, F691L)
NCI H1703 (NSCLC) = assay: Activity against lung cancer cell line; assay type: cell-based; details: Homo sapiens, NCI-H1703
[4] = Homo sapiens, K562, 72 h, read-out: IC50 (proliferation inhibition) Cell line - K562
[5] = Homo sapiens, K562, Table 18, read-out: Inhibition of proliferation of K562 cell lines (CML)

Compound | IC50 (K562; [4]) | IC50 (K562; [5]) | IC50 (MV4-11 [2]; Homo sapiens, MV4-11, 72 h) | inhibition at 0.5 µM (FGFR1) | inhibition at 0.5 µM (FLT3) | inhibition at 0.5 µM (c-Src) | inhibition at 0.5 µM (c-kit) | IC50 (MOLM14; Homo sapiens, MOLM-14) | IC50 (MV4-11 [3]; Homo sapiens, MV4-11) | inhibition of MV4-11 proliferation in words (MV4-11 [1]) | also measured
CCN(CC)CC(O)CNC(=O)c1ccc(C#Cc2c(N)ncc3ccc(Cl)cc23)cc1 (stereo not shown) [Compound A16] | – | – | – | – | – | – | – | – | – | potent | –
Cc1ccc(C(=O)NCc2ccc(OCCN(C)C)cc2)cc1C#Cc1c(N)ncc2ccc(Cl)cc12 [HSN315] | – | – | – | – | – | – | – | – | – | – | % inhibition of FLT3 activity (FLT3): 32%; IC50 (K562; 72 h, read-out: IC50 (proliferation inhibition) Cell line - K562): 0.203 µM; IC50 (K562; Table 18, read-out: Inhibition of proliferation of K562 cell lines (CML)): 0.203 ± 0.0001 µM; IC50 (MV4-11 [2]; 72 h): 0.54 µM; Percent inhibition of proliferation MV-4-11 (MV-4-11): 83%; Percent inhibition of proliferation HCT116 (HCT116): 66%; Percent inhibition of proliferation HeLa (HeLa): 100%; Percent inhibition of proliferation MCF-7 (MCF-7): 100%; IC50 (MOLM14): 523 ± 6.4 nM; IC50 (MV4-11 [3]): 549 ± 7.4 nM; proliferation inhibition in words, MV4-11 / AML (MV4-11 [3]): only moderate inhibitors
COCCCNC(=O)c1ccc(C#Cc2c(N)ncc3ccc(Cl)cc23)cc1 [Compound A25] | – | – | – | – | – | – | – | – | – | inactive | –
Cc1ncc(C(=O)Nc2ccc(CN3CCN(C)CC3)c(C(F)(F)F)c2)cc1C#Cc1cnc(N)c2ncccc12 [HSN459, 5-((8-amino-1,7-naphthyridin-5-yl)ethynyl)-6-methyl-N-(4-((4-methylpiperazin-1-yl)methyl)-3-(trifluoromethyl)phenyl)nicotinamide] | – | – | – | – | – | – | – | – | – | – | Kd (FLT3 (ITD)): 0.0056 µM; Kd (FLT3 (ITD, F691L)): 0.017 µM; IC50 (NCI H1703 (NSCLC)): 38 nM
Cc1ccc2cnc(N)c(C#Cc3cc(C(=O)Nc4ccc(CN5CCN(C)CC5)c(C(F)(F)F)c4)ccc3C)c2c1 [HSN379, 3-((3-amino-6-methylisoquinolin-4-yl)ethynyl)-4-methyl-N-(4-((4-methylpiperazin-1-yl)methyl)-3-(trifluoromethyl)phenyl)benzamide] | – | – | – | – | – | – | – | – | – | – | IC50 (NCI H1703 (NSCLC)): 13 nM
CN(C)CC(O)CNC(=O)c1ccc(C#Cc2c(N)ncc3ccc(Cl)cc23)cc1 (stereo not shown) [Compound A15] | – | – | – | – | – | – | – | – | – | potent | –
Nc1ncc2ccc(Cl)cc2c1C#Cc1ccc(C(=O)NCCCN2CCCCC2)cc1 [Compound A10] | – | – | – | – | – | – | – | – | – | potent | –

Further lines, with some results ahead:

IC50 (K562; [4]) | IC50 (K562; [5]) | IC50 (MV4-11 [2]; Homo sapiens, MV4-11, 72 h) | inhibition at 0.5 µM (FGFR1) | inhibition at 0.5 µM (FLT3) | inhibition at 0.5 µM (c-Src) | inhibition at 0.5 µM (c-kit) | IC50 (MOLM14; Homo sapiens, MOLM-14) | IC50 (MV4-11 [3]; Homo sapiens, MV4-11) | Compound | inhibition of MV4-11 proliferation in words (MV4-11 [1]) | also measured
0.759 µM | 0.913 ± 0.0001 µM | 0.759 µM | – | – | – | – | – | – | Cc1ccc(C(=O)NCc2ccc(OCCN(C)C)cc2)cc1C#Cc1cc(N)nc2ccccc12 [HSN316, 3-((2-aminoquinolin-4-yl)ethynyl)-N-(4-(2-(dimethylamino)ethoxy)benzyl)-4-methylbenzamide] | – | –
0.025 µM | 0.0257 ± 0.00031 µM | 0.154 µM | 6% | 74% | 3% | 86% | 129 ± 8.2 nM | 154 ± 7.1 nM | CCN(CC)CCNC(=O)c1ccc(C)c(C#Cc2c(N)ncc3ccc(Cl)cc23)c1 [HSN247] | – | % inhibition of FLT3 activity (FLT3): 75%; inhibition at 0.5 µM (RET): 3%; inhibition at 0.5 µM (TRKC): 77%; inhibition at 1 µM (MV-4-11): 58%; inhibition at 1 µM (HCT116): 54%; inhibition at 1 µM (HeLa): 100%; inhibition at 1 µM (MCF-7): 100%; proliferation inhibition in words, MV4-11 / AML (MV4-11 [3]): only moderate inhibitors
0.002 µM | 0.0024 ± 6e-05 µM | 0.003 µM | 100% | 93% | 100% | 78% | 3.01 ± 0.1 nM | 3.09 ± 0.1 nM | Cc1ccc(C(=O)Nc2ccc(CN3CCN(C)CC3)c(C(F)(F)F)c2)cc1C#Cc1c(N)ncc2ccccc12 [HSN352, 3-((3-aminoisoquinolin-4-yl)ethynyl)-4-methyl-N-(4-((4-methylpiperazin-1-yl)methyl)-3-(trifluoromethyl)phenyl)benzamide] | – | –
0.007 µM | 0.007 ± 0.0001 µM | 0.225 µM | 9% | 73% | 23% | 93% | 180 ± 7.8 nM | 181 ± 6.5 nM | Cc1ccc(C(=O)NCCN2CCCCC2)cc1C#Cc1c(N)ncc2ccc(Cl)cc12 [HSN248] | – | inhibition at 0.5 µM (RET): 52%; inhibition at 0.5 µM (TRKC): 83%; inhibition at 1 µM (MV-4-11): 98%; inhibition at 1 µM (HCT116): 76%; inhibition at 1 µM (HeLa): 100%; inhibition at 1 µM (MCF-7): 100%; proliferation inhibition in words, MV4-11 / AML (MV4-11 [3]): only moderate inhibitors
0.005 µM | 0.0052 ± 2e-05 µM | 0.003 µM | 93% | 94% | 98% | 82% | 1.97 ± 0.1 nM | 3.45 ± 0.04 nM | Cc1ccc(C(=O)Nc2ccc(CN3CCN(C)CC3)c(C(F)(F)F)c2)cc1C#Cc1c(N)ncc2c(Cl)cccc12 [HSN353, 3-((3-amino-8-chloroisoquinolin-4-yl)ethynyl)-4-methyl-N-(4-((4-methylpiperazin-1-yl)methyl)-3-(trifluoromethyl)phenyl)benzamide] | – | –
